{
  "source": "paper PMC5673907",
  "about": "(Clinical and Translational Science, 2017)",
  "origin": "cited, not measured here",
  "system": "HDL inflammatory index",
  "settings": "simvastatin 40 mg daily",
  "data": [
    {"compound": "CCC(C)(C)C(=O)O[C@H]1C[C@@H](C)C=C2C=C[C@H](C)[C@H](CC[C@@H]3C[C@@H](O)CC(=O)O3)[C@H]21", "note": "[simvastatin]", "values": [
      {"measurement": "Mean HII after statin", "result": "above 1.0 UR"},
      {"measurement": "Drop in HII", "setting": "6 weeks, statin-naive CHD/equivalent risk", "result": 28, "unit": "%"}
    ]}
  ]
}
